Measured values published in patent publication US10626178B2, “Treatment of mood and stress related disorders” (priority 2013, dated 2020).

Columns and labels:
DG microglia = DG microglia number and morphology after unpredictable stress (US/CUS); assay type: in vivo, mice
Protocol: (§1) Subjects were exposed to chronic unpredictable stress (CUS), consisting of daily exposure to two stressors in a random order over a 5-week period. The effect of a shorter period of unpredictable stress was examined by exposing mice to various combinations of 2-3 of the same stressors over a period of 2 days. The list of CUS stressors included: cage shaking for 1 h with loud music and lights, on, lights on during the entire night (12 h), lights-off for 3 h during the daylight phase, flashing (stroboscopic) light for 6 h, placement in 4° C. cold room for 1 h, mild restraint (in small cages) for 2 h, 45° cage tilt for 14 h, wet cage for 14 h, exposure to fox, ferret, bobcat, or coyote smell for 2 h, noise in the room for 3 h, and water deprivation for 12 h during the dark period.
Animals were perfused trans-cardially with cold PBS followed by 4% paraformaldehyde in 0.1 M PBS, and the brains were quickly removed and placed in 4% paraformaldehyde. After 24 h the brains were placed in 30% sucrose solution in PBS and then frozen in OCT.
In some experiments microglia were visualized using an antibody to the microglia activation marker ionized calcium-binding adapter molecule-1 (Iba-1). Brain sections were first fixed in 2% paraformaldehyde, and after 3 PBS washes they were incubated over-night in 3% normal goat serum in 5% BSA with the primary antibody (rabbit anti Iba-1 1:220, Wako, Japan) at 4° C. Sections were then incubated with the secondary antibody (goat anti rabbit, 1:200; Invitrogen) for 1 hour at RT and counter-stained with DAPI (Sigma, Israel).
(§2) Images were captured using Nikon Eclipse fluorescent microscope and CI Nikon confocal microscope and camera. The number of GFP-labeled microglia (and in some studies the number of BrdU-labeled microglia and other cells), as well and the microglial soma area were automatically measured at ×10 magnification in a defined area exclusively containing the entire Dentate Gyrus or prelimbic cortex, for each slide, using Nikon Imaging Elements Software (NIS-Elements). Microglia processes length was measured by capturing images at 40× magnification and by manual tracing of the processes of 4 randomly selected cells/section their processes using the NIS Elements software.

CUS-exposed mice [1] = experiment: Sucrose preference test; assay type: in vivo
Protocol: as §1, with “dark period. Following baseline adaptation to sucrose for several days, animals were presented in the beginning of the dark circadian phase with two graduated drinking tubes, one containing tap water and the other 2% sucrose solution for 3 hr. Sucrose preference was calculated as the percent of sucrose consumption out of the total drinking volume.” for “dark period.”

CUS-exposed mice [2] = experiment: Social exploration test; assay type: in vivo; details: for social exploration time: 5-weeks CUS-exposed mice treated for 2 additional weeks of CUS
Protocol: as §1, with “dark period. Each subject was placed in an observation cage and allowed to habituate to the cage for 15 min, following which a male juvenile was placed in the cage. Social exploration, defined as the time of near contact between the nose of the subject and the juvenile conspecific, was then recorded for three minutes, using computerized in-house software.” for “dark period.”

CUS-exposed mice [3] = experiment: Porsolt forced swim test; assay type: in vivo
Protocol: Subjects were exposed to chronic unpredictable stress (CUS), consisting of daily exposure to two stressors in a random order over a 5-week period. […] The list of CUS stressors included: cage shaking for 1 h with loud music and lights, on, lights on during the entire night (12 h), lights-off for 3 h during the daylight phase, flashing (stroboscopic) light for 6 h, placement in 4° C. cold room for 1 h, mild restraint (in small cages) for 2 h, 45° cage tilt for 14 h, wet cage for 14 h, exposure to fox, ferret, bobcat, or coyote smell for 2 h, noise in the room for 3 h, and water deprivation for 12 h during the dark period.
Mice were placed in 20 cm diameter glass cylinder filled to 10 cm with 21° C. water and their behavior was analyzed for five min. The time spent in immobility, defined as the absence of all movement except motions required to maintain the animal's head above the water, and the latency to first immobility episode were recorded using an in-house computerized software.

CUS-exposed mice [4] = experiment: CUS model, overall depressive-like behavior; assay type: in vivo
Protocol: as §1

DG cells = experiment: BrdU labeling of DG cells (neurogenesis / proliferation); assay type: in vivo, mice; details: M-CSF 100 μg/kg i.p. daily for 5 days
Protocol: BrdU immunofluorescent staining was performed on 8 μm frozen brain sections, fixated in 50% formamide/2×SCC (0.3M NaCl and 0.03 M sodium citrate) for 2 hours at 65° C. After one wash with 2×SCC, sections were incubated in 2 N HCl for 30 minutes at 37° C. Sections were then rinsed in 0.1 M boric acid at pH 8.5 and washed 3 times in PBS, following which they were incubated in 3% normal goat serum in 1% BSA/0.1% Triton for 30 min at room temperature and then incubated with rat monoclonal anti-BrdU antibody (1:200, AbD serotec) for 48 hours at 4° C. […]
as §2

[5] = 5-weeks CUS-exposed mice treated for 2 additional weeks of CUS (imipramine, minocycline in drinking water; GM-CSF i.p. 3 time/week)
[6] = 5-weeks CUS, drug beginning two days before and throughout CUS
[7] = 5-weeks CUS-exposed mice treated for 2 additional weeks of CUS
[8] = CUS-exposed mice, M-CSF 100 μg/kg i.p. daily for 5 days

In the case of CN(C)CCCN1c2ccccc2CCc2ccccc21 [imipramine, reference compound], the DG microglia number (DG microglia; [5]) is reported as “no differences from any of the groups”, the hippocampal microglia number (DG microglia; [6]) is reported as “blocked the CUS-induced decline in hippocampal microglia number” and the microglia processes length (DG microglia; [6]) is reported as “blocked the CUS-induced decline”. For the same molecule, the microglia soma size (DG microglia; [6]) was “blocked the CUS-induced decline”, the “number of hippocampal (DG) microglia” value (DG microglia; 2 days of US exposure, drug via drinking water beginning 2 days before US initiation (minocycline 40, imipramine 20 mg/kg/day)) was “completely reversed the increase in hippocampal microglia” and the sucrose preference (CUS-exposed mice [1]; [6]) was “prevented the CUS-induced reductions in sucrose preference”. The social exploration time (CUS-exposed mice [2]) was “further reductions were evident”, the social exploration (CUS-exposed mice [2]; [6]) was “prevented the CUS-induced reductions” and the floating time (CUS-exposed mice [3]; [7]) was “showed no difference from non-stressed controls”. For the same molecule, the “effect on established CUS-induced depressive-like behavior” value (CUS-exposed mice [4]; administration to mice with established CUS-induced depressive-like behavior) was “produced minimal beneficial effects”.

GM-CSF was tested, and the DG microglia number (DG microglia; [5]) was “significantly greater number of microglia as compared with the control CUS-exposed mice”, the sucrose preference (CUS-exposed mice [1]; [7]) was “completely reversed the suppressive effects of CUS on sucrose preference” and the social exploration time (CUS-exposed mice [2]) was “induced an elevation in the social exploration time”. The floating time (CUS-exposed mice [3]; [7]) was “showed no difference from non-stressed controls”.

With “IL-1β: microglia-stimulating cytokine interleukin-1β, given intra-hippocampally” the “microglia number and morphology” value (DG microglia; acute intra-hippocampal administration in WT mice) was “mimicked the effects of short-term US on microglia number and morphology”.

B1: M-CSF: Macrophage colony-stimulating factor, homodimer glycoprotein; microglia activator (protein, UniProt P09603 33-554, looked up)
Macrophage colony-stimulating …: EEVSEYCSHMIGSGHLQSLQRLIDSQMETSCQITFEFVDQEQLKDPVCYLKKAFLLVQDIMEDTMRFRDNTPNAIAIVQLQELSLRLKSCFTKDYEEHDKACVRTFYETPLQLLEKVKNVFNETKNLLDKDWNIFSKNCNNSFAECSSQDVVTKPDCNCLYPKAIPSSDPASVSPHQPLAPSMAPVAGLTWEDSEGTEGSSLLPGEQPLHTVDPGSAKQRPPRSTCQSFEPPETPVVKDSTIGGSPQPRPSVGAFNPGMEDILDSAMGTNWVPEEASGEASEIPVPQGTELSPSRPGGGSMQTEPARPSNFLSASSPLPASAKGQQPADVTGTALPRVGPVRPTGQDWNHTPQKTDHPSALLRDPPEPGSPRISSLRPQGLSNPSTLSAQPQLSRSHSSGSVLPLGELEGRRSTRDRRSPAEPEGGPASEGAARPLPRFNSVPLTDTGHERQSEGSFSPQLQESVFHLLVPSVILVLLAVGGLLFYRWRRRSHQEPQRADSPLEQPEGSPLTQDDRQVELPV
For B1, the DG microglia number (DG microglia; control and CUS-exposed mice, M-CSF 100 μg/kg i.p. daily for 5 days) was “overall increase in DG microglia number, completely normalizing microglia number in CUS-exposed mice”, the sucrose preference (CUS-exposed mice [1]; [8]) was “completely reversed the suppressive effects of CUS on sucrose preference” and the social exploration (CUS-exposed mice [2]; [8]) was “completely reversed the suppressive effects of CUS”. For the same molecule, the floating time (CUS-exposed mice [3]; [8]) was “reversed”, the “latency to first float” value (CUS-exposed mice [3]; [8]) was “did not reach statistical significance” and the “generation of new (BrdU-labeled) DG cells that are not microglia” value (DG cells; CUS-exposed mice) was “marked increase in the generation of new (BrdU-labeled) DG cells that are not microglia”. The “microglia proliferation (GFP microglia co-labeled for BrdU)” value (DG cells) was “overall increase in microglia proliferation”, the depressive-like behavioral symptoms (CUS-exposed mice [4]; CUS-exposed mice) was “completely reversed the depressive symptoms after a few days of treatment” and the depressive symptoms (CUS-exposed mice [4]; non-stressed mice) was “did not cause depressive symptoms in non-stressed mice”.
